Source: patent US20240175062A1, “LIPOXYGENASE-BASED RECOMBINANT MICROORGANISMS, AND METHOD FORPREPARING HYDROXY FATTY ACIDS AND SECONDARY FATTY ALCOHOLS USING SAME” (EWHA UNIVERSITY - INDUSTRY COLLABORATION FOUNDATION, priority 2021, published 2024)
Read-outs that look alike come from different tables or passages of the source.

Columns and labels:
[1] = biological target: Enhygromyxa salina-derived lipoxygenase (EsLOX) (Enhygromyxa salina, UniProt A0A0C2CV93); experiment: Enzymatic activity of purified EsLOX for long-chain unsaturated fatty acids (UV-vis spectrophotometer, 234 nm); type: biochemical; conditions: substrate of purified EsLOX, 50 mM EPPS (pH 8.5) buffer
Experimental: The culture medium was centrifuged at 13,000×g at 4° C. for 30 minutes and washed twice with phosphate-buffered saline, and added with 50 mM monosodium phosphate (NaH2PO4), 300 mM sodium chloride, 10 mM imidazole, 0.1 mM protease inhibitor (phenylmethylsulfonyl fluoride), and 400 U lysozyme, and then the cell solution was lysed with a sonicator. The cell lysate was centrifuged at 13,000×g at 4° C. for 10 minutes, and then the pellet was removed to separate only a cell supernatant. The cell supernatant was flowed onto a resin packed with an Ni-NTA agarose resin (Qiagen). The protein bound to the resin was washed with a wash buffer (50 mM NaH2PO4, 300 mM NaCl, 20/30 mM imidazole), eluted with an elution buffer (50 mM NaH2PO4, 300 mM NaCl, 250 mM imidazole) to purify Enhygromyxa lipoxygenase. Thereafter, a sample containing the purified Enhygromyxa lipoxygenase was prepared by obtaining a concentrated protein solution using 30 kDa Amicon.
Then, the enzymatic activity of the enzyme sample was measured using a UV-vis spectrophotometer (234 nm). More specifically, as the linoleic acid dioxygenation reaction progressed, the rate of increase in absorbance of a product, conjugated diene, was measured using the spectrophotometer, and the reaction time was measured for each of 10 seconds up to 180 seconds.

[2] = substrate: CCCCC/C=C\C/C=C\C/C=C\C/C=C\CCCC(=O)O; experiment: cells, lysate or membranes named; conditions: other: substrate of purified EsLOX, 234 nm, 50 mM EPPS (pH 8.5) buffer

Molecule: CCCCC/C=C\C/C=C\CCCCCCCC(=O)O [Linoleic acid, linoleic acid]
- Km ([1]; read-out: KM): 90 µM

Molecule: CC/C=C\C/C=C\C/C=C\CCCCCCCC(=O)O [α-Linolenic acid, α-linolenic acid]
- Km ([1]; read-out: KM): 120 µM

Molecule: CCCCC/C=C\C/C=C\C/C=C\CCCCC(=O)O [γ-Linolenic acid, γ-linolenic acid]
- Km [1]: 130 µM

B1: Enhygromyxa salina-derived lipoxygenase (EsLOX) (Enhygromyxa salina) (protein)
chain: MSNIPTLPQNDPRPEQRAQQLDKARETYKYADLLPPLAFCEGVPKPDTPSAAWLVTVGKVAAAVALNAVANRRAWKRGDHDEEDASFDVGGTSEEDQNEAGHNSFLARLENFDEEAVSFAPGDEPSVLDEVNERVAAILGAKPNRHVPPAQADDDDNGDDGDGDESFGVLDGNVSKDGPNGRPQSMDDYANLFRRITLPPIASTWKNDSAFAAYRVAGPNASMIQRITELPDNFAVTDAHYKQAMGEGDSLDAAKAEGRLFLADWKLIGETLVNNTYKGAQKTVYAPLALFAVPPGGGSLAPVAIQPGQTPSPTNKIYATQDGNDWLAAKSAVQVAEGNYHELVSHLGLTHLLLEPIVMATYRQLAQHHPIYMLLIPHFEGTLSINNSAATNLIAPGGAVDLIFAGTIESEHQLALAALKRHDFMRSGLPDTIEQRGVGDTSVLTDYPYRDDGLKIWANIERWVTAYVNNYYISEANVTQDTELQAWAAVLSKPFAEGGVSGFGPIDTRAALIFACTKVIFTASAEHSAVNFPQKDLMSYAPAITGAGWTAAPPSQGPLKDFQPPLELAELQAEFLYLLGGVHHTKLGFYNSNSFPYRAWFKDPKITAELLPAFQRDLAASEELIVAANATRTFKYTYMIPSTIPMSINI
- Km [2]: 80 µM
- kcat/Km [2]: 290000 M⁻¹ s⁻¹
